Assay results published in patent US20120046276A1, “Tuberculosis treatment using pleuromutilin derivatives” (priority 2002, published 2012).

Assays:
Format in all cases: cell-based
[1] = system: Mycobacterium tuberculosis strain 3; test: Agar Dilution Test (MIC), strain 3 (Isoniacid R, Rifampicin R, Streptomycin S); details: TABLE A; strain 3; MIC determined after 3, 4 and 5 weeks
[2] = system: Mycobacterium tuberculosis strain 8; test: Agar Dilution Test (MIC), strain 8 (Isoniacid S, Rifampicin R, Streptomycin S); details: TABLE A; strain 8; MIC determined after 3, 4 and 5 weeks
[3] = system: Mycobacterium tuberculosis strain 15 (labor strain 137 kV); test: Agar Dilution Test (MIC), strain 15 = labor strain 137 kV (Isoniacid S, Rifampicin S, Streptomycin S); details: TABLE A; strain 15; MIC determined after 3, 4 and 5 weeks
[4] = system: Mycobacterium tuberculosis strain 14; test: Agar Dilution Test (MIC), strain 14 (Isoniacid S, Rifampicin S, Streptomycin S); details: TABLE A; strain 14; MIC determined after 3, 4 and 5 weeks
[5] = system: Mycobacterium tuberculosis strain 9; test: Agar Dilution Test (MIC), strain 9 (Isoniacid R, Rifampicin S, Streptomycin R); details: TABLE A, MIC determined after 3, 4 and 5 weeks
[6] = system: Mycobacterium tuberculosis strain 6; test: Agar Dilution Test (MIC), strain 6 (Isoniacid S, Rifampicin S, Streptomycin S); details: TABLE A; strain 6; MIC determined after 3, 4 and 5 weeks
[7] = system: Mycobacterium tuberculosis strain 4; test: Agar Dilution Test (MIC), strain 4 (Isoniacid R, Rifampicin R, Streptomycin R); details: TABLE A; strain 4; MIC determined after 3, 4 and 5 weeks
[8] = system: Mycobacterium tuberculosis strain 1; test: Agar Dilution Test (MIC), strain 1 (Isoniacid S, Rifampicin S, Streptomycin S); details: TABLE A; strain 1; MIC determined after 3, 4 and 5 weeks
[9] = system: Mycobacterium tuberculosis strain 7; test: Agar Dilution Test (MIC), strain 7 (Isoniacid R, Rifampicin S, Streptomycin R); details: TABLE A; strain 7; MIC determined after 3, 4 and 5 weeks
[10] = system: Mycobacterium tuberculosis strain 13; test: Agar Dilution Test (MIC), strain 13 (Isoniacid S, Rifampicin S, Streptomycin S); details: TABLE A; strain 13; MIC determined after 3, 4 and 5 weeks
[11] = system: Mycobacterium tuberculosis strain 10; test: Agar Dilution Test (MIC), strain 10 (Isoniacid S, Rifampicin S, Streptomycin S); details: TABLE A; strain 10; MIC determined after 3, 4 and 5 weeks
[12] = system: Mycobacterium tuberculosis strain 2; test: Agar Dilution Test (MIC), strain 2 (Isoniacid S, Rifampicin S, Streptomycin S); details: TABLE A; strain 2; MIC determined after 3, 4 and 5 weeks
[13] = system: Mycobacterium tuberculosis strain 11; test: Agar Dilution Test (MIC), strain 11 (Isoniacid S, Rifampicin S, Streptomycin S); details: TABLE A; strain 11; MIC determined after 3, 4 and 5 weeks
[14] = system: Mycobacterium tuberculosis strain 5; test: Agar Dilution Test (MIC), strain 5 (Isoniacid R, Rifampicin R, Streptomycin S); details: TABLE A; strain 5; MIC determined after 3, 4 and 5 weeks
[15] = system: Mycobacterium tuberculosis strain 12; test: Agar Dilution Test (MIC), strain 12 (Isoniacid S, Rifampicin S, Streptomycin S); details: TABLE A; strain 12; MIC determined after 3, 4 and 5 weeks

Row | SMILES | sensible (S) or resistant (R) [1] | sensible (S) or resistant (R) [2] | sensible (S) or resistant (R) [3] | sensible (S) or resistant (R) [4] | sensible (S) or resistant (R) [5] | sensible (S) or resistant (R) [6] | sensible (S) or resistant (R) [7] | sensible (S) or resistant (R) [8] | sensible (S) or resistant (R) [9] | sensible (S) or resistant (R) [10] | sensible (S) or resistant (R) [11] | sensible (S) or resistant (R) [12] | sensible (S) or resistant (R) [13] | sensible (S) or resistant (R) [14] | sensible (S) or resistant (R) [15]
1 | [H]/N=C(/N)N[C@H]1[C@H](O)[C@@H](O)[C@H](O[C@@H]2O[C@@H](C)[C@](O)(C=O)[C@H]2O[C@@H]2O[C@@H](CO)[C@H](O)[C@@H](O)[C@@H]2NC)[C@@H](N/C(N)=N\[H])[C@@H]1O [Streptomycin] | S (sensible (S)) | S (sensible (S)) | S (sensible (S)) | S (sensible (S)) | R (A strain is designated as resistant if its MIC in testing according to the General Test Procedure after 3 to 5 weeks is higher than 20 μg/ml) | S (sensible (S)) | R (A strain is designated as resistant if its MIC in testing according to the General Test Procedure after 3 to 5 weeks is higher than 20 μg/ml) | S (sensible (S)) | R (A strain is designated as resistant if its MIC in testing according to the General Test Procedure after 3 to 5 weeks is higher than 20 μg/ml) | S (sensible (S)) | S (sensible (S)) | S (sensible (S)) | S (sensible (S)) | S (sensible (S)) | S (sensible (S))
2 | CO[C@H]1/C=C/O[C@@]2(C)Oc3c(C)c(O)c4c(O)c(c(/C=N/N5CCN(C)CC5)c(O)c4c3C2=O)NC(=O)/C(C)=C\C=C\[C@H](C)[C@H](O)[C@@H](C)[C@@H](O)[C@@H](C)[C@H](OC(C)=O)[C@@H]1C [Rifampicin] | R (A strain is designated as resistant if its MIC in testing according to the General Test Procedure after 3 to 5 weeks is higher than 20 μg/ml) | R (A strain is designated as resistant if its MIC in testing according to the General Test Procedure after 3 to 5 weeks is higher than 20 μg/ml) | S (sensible (S)) | S (sensible (S)) | S (sensible (S)) | S (sensible (S)) | R (A strain is designated as resistant if its MIC in testing according to the General Test Procedure after 3 to 5 weeks is higher than 20 μg/ml) | S (sensible (S)) | S (sensible (S)) | S (sensible (S)) | S (sensible (S)) | S (sensible (S)) | S (sensible (S)) | R (A strain is designated as resistant if its MIC in testing according to the General Test Procedure after 3 to 5 weeks is higher than 20 μg/ml) | S (sensible (S))
3 | NNC(=O)c1ccncc1 [Isoniacid] | R (A strain is designated as resistant if its MIC in testing according to the General Test Procedure after 3 to 5 weeks is higher than 20 μg/ml) | S (sensible (S)) | S (sensible (S)) | S (sensible (S)) | R (A strain is designated as resistant if its MIC in testing according to the General Test Procedure after 3 to 5 weeks is higher than 20 μg/ml) | S (sensible (S)) | R (A strain is designated as resistant if its MIC in testing according to the General Test Procedure after 3 to 5 weeks is higher than 20 μg/ml) | S (sensible (S)) | R (A strain is designated as resistant if its MIC in testing according to the General Test Procedure after 3 to 5 weeks is higher than 20 μg/ml) | S (sensible (S)) | S (sensible (S)) | S (sensible (S)) | S (sensible (S)) | R (A strain is designated as resistant if its MIC in testing according to the General Test Procedure after 3 to 5 weeks is higher than 20 μg/ml) | S (sensible (S))
